The conditions of series [1]: F 127 ferrofluid gel, constant magnetic field; cited from earlier work.
Series [2] can be described thus: Desorption of pharmaceutical from heat-sensitive polymer film on magnetic carrier by cooling below LCST. The class given is physicochemical. To be noted: Fe0.49Rh0.51 plates with graphite layer, film of copolymer NIPAAm with 35 mol % tBuAM; cooled below LCST to 15.9° C. The method, then: The method may be realized, for example, as follows: quenched magnetic material Fe0.49Rh0.51 covered with a heat-sensitive polymer together with a pharmaceutical (for example, anti-inflammatory) in the form of particles in of about 150-200 nm is administered inside of an organism through a catheter and delivery of the aforementioned particles is performed to a target organ or a tissue. Magnetic field of 2 T is applied on the area, where the particles are concentrated. The magnetic material is cooled by 13° C., which results in refrigerating of a heat-sensitive polymer, for example (co)polymer N-iso-propyl acrylamide, down to temperature below LCST, in this case down to 24° C., and desorption of the pharmaceutical from the surface of heat-sensitive polymer takes place.
A procedure analogous to that described in Example 4, but administration of a pharmaceutical Adriablastin in an organism is made, when the magnetic carrier represents alloy of iron-rhodium Fe0.49Rh0.51, which surface is covered with copolymer NIPAAm with 35 mol % of tBuAM film, with alloy surface preliminary covered with a thin protective graphite layer (preventing oxidation); the magnetic material is prepared in the form of plates. […]

Results on two compounds are retold here after patent US9017713B2, “Magnetic carrier and medical preparation for controllable delivery and release of active substances, methods of their production and methods of treatment using thereof” (priority 2006, dated 2015).

In the case of vitamin B12, the “Increase of release after application of magnetic field to the gel” value in series [1] is listed as 20%.
Turning to `COc1cccc2c1C(=O)c1c(O)c3c(c(O)c1C2=O)C[C@@](O)(C(=O)CO)C[C@@H]3O[C@H]1C[C@H](N)[C@H](O)[C@H](C)O1` [Adriablastin], the Time of desorption in series [2] amounted to 30 ± 5 min.
